ChEMBL document CHEMBL4354881, “Optimization of Potent ATAD2 and CECR2 Bromodomain Inhibitors with an Atypical Binding Mode” (J Med Chem, 2020)

Experiments:
[1] = target: T1, Chromatin remodeling regulator CECR2 (Homo sapiens, UniProt Q9BXF3); experiment: Displacement of Alexa Fluor 647-labeled GSK tracer from FLAG-6His-Tev-fused CECR2 (424 to 543 residue) (unknown origin) measured after 15 mins by TR-FRET assay
[2] = target: T2, ATPase family AAA domain-containing protein 2 (Homo sapiens, UniProt Q6PL18); experiment: Displacement of Alexa Fluor 488-labeled ligand from FLAG-6His-Tev-fused ATAD2 (981 to 1121 residue) (unknown origin) measured after 30 mins by TR-FRET assay
T2 sequence (Q6PL18 whole entry): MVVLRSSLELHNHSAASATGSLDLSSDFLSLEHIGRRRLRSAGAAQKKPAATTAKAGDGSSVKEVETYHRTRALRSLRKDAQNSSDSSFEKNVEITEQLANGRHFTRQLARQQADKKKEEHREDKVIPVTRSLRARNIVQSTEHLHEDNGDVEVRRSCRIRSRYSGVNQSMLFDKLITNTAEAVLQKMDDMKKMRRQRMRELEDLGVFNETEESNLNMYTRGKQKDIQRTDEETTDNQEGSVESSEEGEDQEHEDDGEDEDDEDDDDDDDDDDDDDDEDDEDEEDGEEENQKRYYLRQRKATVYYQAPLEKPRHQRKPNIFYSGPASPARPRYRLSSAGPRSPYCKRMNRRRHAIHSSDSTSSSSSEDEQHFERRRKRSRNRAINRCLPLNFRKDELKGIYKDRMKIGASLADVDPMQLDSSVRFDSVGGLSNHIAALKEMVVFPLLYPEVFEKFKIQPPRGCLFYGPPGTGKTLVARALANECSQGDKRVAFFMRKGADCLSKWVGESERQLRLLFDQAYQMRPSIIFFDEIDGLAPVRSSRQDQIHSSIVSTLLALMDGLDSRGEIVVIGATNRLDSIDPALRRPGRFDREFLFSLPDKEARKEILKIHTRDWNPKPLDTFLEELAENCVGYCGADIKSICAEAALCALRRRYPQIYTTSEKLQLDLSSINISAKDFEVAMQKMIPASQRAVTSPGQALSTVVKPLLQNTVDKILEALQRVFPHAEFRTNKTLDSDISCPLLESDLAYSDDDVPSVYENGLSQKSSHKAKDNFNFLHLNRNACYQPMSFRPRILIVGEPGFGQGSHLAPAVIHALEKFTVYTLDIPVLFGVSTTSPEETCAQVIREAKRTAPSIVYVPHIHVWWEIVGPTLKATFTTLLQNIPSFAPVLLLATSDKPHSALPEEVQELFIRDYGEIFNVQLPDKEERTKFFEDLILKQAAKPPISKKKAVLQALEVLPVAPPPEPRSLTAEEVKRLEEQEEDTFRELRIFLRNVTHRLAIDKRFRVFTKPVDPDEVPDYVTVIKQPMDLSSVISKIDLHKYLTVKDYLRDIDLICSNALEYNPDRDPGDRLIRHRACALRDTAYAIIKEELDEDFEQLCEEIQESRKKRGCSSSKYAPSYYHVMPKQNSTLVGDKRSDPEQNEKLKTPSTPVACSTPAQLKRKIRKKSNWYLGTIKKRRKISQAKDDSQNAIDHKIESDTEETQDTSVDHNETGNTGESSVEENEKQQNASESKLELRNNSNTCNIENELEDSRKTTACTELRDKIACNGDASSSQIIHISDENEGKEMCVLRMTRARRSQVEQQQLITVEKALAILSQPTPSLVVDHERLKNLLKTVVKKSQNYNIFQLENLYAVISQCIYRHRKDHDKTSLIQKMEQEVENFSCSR

[3] = Permeability of the compound by artificial lipid membrane-based method; format: ADME; conditions: not told; read-out: permeability
[4] = target: T2, ATPase family AAA domain-containing protein 2; experiment: Binding affinity to human partial length ATAD2A (Q981 to R1108 residues) expressed in bacterial expression system by BROMOscan assay
[5] = target: Bromodomain adjacent to zinc finger domain protein 2A (Homo sapiens, UniProt Q9UIF9); experiment: Binding affinity to human partial length BAZ2A (M1792 to L1905 residues) expressed in bacterial expression system by BROMOscan assay
Bromodomain adjacent to zinc finger domain protein 2A, sequence (Q9UIF9 whole entry, the tested form may be a part): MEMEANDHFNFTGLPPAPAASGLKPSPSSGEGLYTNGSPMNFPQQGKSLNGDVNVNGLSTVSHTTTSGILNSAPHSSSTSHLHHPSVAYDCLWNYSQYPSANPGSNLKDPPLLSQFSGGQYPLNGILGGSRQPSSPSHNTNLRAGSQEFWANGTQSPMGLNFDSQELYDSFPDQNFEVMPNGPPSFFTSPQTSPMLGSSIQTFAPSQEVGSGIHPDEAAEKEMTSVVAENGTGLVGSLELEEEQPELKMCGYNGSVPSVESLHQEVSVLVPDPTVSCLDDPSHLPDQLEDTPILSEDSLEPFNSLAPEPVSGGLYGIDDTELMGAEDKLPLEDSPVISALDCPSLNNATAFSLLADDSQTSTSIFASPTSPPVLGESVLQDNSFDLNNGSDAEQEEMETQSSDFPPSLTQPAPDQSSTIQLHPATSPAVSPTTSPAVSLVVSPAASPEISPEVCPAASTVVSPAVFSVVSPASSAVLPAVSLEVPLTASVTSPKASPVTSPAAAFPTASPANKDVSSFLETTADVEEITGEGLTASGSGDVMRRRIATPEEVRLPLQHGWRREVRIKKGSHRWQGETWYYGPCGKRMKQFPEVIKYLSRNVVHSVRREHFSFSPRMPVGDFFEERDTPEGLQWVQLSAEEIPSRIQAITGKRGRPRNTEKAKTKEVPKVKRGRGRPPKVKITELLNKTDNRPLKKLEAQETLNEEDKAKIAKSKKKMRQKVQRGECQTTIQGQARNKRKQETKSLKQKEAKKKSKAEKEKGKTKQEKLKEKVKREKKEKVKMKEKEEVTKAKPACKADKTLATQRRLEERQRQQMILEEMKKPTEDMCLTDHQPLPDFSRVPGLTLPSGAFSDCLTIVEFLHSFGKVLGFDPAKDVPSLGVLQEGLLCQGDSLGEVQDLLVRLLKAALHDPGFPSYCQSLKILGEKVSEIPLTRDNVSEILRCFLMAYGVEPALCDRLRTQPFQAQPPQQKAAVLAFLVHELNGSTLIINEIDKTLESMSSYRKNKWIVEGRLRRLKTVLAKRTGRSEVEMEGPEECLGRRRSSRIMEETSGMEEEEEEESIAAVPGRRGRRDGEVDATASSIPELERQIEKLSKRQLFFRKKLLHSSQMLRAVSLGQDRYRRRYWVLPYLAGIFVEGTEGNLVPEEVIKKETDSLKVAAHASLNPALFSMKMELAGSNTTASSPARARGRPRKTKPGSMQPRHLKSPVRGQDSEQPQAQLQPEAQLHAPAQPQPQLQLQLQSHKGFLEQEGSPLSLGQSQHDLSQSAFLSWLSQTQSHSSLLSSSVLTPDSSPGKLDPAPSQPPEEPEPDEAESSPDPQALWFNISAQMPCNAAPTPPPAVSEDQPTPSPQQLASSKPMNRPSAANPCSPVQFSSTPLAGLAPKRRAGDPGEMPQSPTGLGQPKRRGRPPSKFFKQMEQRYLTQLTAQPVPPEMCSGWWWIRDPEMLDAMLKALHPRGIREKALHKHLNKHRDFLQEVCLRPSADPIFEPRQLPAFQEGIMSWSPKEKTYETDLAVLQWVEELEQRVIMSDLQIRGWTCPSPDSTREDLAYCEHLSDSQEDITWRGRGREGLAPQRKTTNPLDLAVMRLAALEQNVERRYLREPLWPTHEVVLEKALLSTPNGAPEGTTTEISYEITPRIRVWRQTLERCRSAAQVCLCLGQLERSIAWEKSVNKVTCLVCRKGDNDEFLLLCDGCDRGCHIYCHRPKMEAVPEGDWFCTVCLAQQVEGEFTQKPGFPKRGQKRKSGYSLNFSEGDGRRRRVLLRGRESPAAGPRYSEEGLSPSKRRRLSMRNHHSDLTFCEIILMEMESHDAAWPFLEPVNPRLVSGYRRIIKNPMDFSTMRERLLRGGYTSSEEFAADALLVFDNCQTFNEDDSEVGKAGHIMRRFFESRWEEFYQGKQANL

[6] = target: T3, Bromodomain and PHD finger-containing protein 3 (Homo sapiens, UniProt Q9ULD4); experiment: Binding affinity to human partial length BRPF3 (E588 to G701 residues) expressed in bacterial expression system by BROMOscan assay
T3 sequence (Q9ULD4 whole entry): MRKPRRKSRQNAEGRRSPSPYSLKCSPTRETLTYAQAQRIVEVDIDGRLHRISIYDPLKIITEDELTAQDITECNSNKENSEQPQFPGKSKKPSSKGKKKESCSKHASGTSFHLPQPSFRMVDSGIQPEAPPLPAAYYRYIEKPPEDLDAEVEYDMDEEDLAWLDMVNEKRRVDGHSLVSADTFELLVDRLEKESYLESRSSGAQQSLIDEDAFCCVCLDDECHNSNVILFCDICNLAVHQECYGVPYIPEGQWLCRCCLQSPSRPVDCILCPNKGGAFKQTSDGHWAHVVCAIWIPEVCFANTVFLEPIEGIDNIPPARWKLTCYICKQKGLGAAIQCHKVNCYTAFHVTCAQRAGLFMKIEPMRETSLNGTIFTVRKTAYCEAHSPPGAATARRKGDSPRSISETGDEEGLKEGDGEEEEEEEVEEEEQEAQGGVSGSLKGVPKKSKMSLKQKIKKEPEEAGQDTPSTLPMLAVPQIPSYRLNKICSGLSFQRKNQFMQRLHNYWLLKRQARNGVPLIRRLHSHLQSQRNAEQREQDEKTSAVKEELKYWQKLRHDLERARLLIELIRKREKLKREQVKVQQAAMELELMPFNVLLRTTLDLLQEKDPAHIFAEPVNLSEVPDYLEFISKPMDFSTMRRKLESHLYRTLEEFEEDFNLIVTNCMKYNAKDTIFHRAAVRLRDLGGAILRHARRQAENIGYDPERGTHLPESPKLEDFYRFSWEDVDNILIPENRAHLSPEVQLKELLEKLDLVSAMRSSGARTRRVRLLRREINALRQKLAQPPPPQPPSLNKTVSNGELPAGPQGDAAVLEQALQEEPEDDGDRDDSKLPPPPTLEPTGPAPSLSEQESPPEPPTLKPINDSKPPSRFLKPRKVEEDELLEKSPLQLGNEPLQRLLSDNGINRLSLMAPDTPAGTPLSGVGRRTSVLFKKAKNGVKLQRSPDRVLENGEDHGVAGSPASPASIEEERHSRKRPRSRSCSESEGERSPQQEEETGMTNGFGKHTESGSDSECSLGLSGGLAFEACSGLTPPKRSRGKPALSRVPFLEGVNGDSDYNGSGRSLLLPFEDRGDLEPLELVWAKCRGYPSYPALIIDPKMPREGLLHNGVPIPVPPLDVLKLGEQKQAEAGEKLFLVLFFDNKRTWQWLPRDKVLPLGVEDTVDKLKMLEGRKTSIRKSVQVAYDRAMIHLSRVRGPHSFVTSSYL

[7] = target: T1, Chromatin remodeling regulator CECR2; experiment: Binding affinity to human partial length CECR2 (P423 to D543 residues) expressed in bacterial expression system by BROMOscan assay

T1 sequence (Q9BXF3 whole entry, the tested form may be a part): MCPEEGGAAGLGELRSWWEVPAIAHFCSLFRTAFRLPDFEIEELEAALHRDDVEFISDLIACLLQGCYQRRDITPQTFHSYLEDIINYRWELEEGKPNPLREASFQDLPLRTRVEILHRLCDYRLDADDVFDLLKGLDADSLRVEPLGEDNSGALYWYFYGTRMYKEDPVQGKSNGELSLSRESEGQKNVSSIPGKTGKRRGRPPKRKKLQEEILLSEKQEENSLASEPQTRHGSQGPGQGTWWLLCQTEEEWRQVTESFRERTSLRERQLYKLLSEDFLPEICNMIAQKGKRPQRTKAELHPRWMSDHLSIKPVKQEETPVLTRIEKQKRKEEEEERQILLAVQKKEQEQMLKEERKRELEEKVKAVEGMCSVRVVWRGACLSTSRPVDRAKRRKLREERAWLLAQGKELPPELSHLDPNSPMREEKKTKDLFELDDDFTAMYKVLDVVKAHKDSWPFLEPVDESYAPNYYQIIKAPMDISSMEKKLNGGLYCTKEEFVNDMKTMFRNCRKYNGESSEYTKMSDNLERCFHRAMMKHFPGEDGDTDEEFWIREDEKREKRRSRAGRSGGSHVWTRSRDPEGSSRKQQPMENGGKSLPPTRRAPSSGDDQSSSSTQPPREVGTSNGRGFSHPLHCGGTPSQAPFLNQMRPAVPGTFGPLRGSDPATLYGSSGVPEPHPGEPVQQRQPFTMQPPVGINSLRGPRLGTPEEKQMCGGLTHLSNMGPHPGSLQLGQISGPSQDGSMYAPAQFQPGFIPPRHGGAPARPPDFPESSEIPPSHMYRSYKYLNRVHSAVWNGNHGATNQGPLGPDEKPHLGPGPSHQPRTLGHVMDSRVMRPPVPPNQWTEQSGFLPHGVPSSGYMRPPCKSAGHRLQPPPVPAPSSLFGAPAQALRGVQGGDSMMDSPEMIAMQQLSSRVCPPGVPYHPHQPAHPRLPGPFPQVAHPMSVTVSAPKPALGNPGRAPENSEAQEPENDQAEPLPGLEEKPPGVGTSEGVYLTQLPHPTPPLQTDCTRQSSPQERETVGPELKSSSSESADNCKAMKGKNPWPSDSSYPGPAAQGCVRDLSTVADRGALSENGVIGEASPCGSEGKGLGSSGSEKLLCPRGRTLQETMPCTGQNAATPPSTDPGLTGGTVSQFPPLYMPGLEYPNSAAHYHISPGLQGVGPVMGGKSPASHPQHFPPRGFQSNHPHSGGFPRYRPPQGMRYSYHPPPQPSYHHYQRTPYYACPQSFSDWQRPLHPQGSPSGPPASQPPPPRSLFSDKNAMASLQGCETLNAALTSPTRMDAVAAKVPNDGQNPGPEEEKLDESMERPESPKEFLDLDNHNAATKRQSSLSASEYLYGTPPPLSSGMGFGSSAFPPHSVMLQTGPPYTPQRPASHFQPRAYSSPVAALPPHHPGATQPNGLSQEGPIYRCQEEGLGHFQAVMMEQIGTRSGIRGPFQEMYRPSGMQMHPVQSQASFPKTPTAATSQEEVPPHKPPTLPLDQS

SMILES: C[C@H]1CCN(S(=O)(=O)c2cc(NC(=O)CN3C(=O)N[C@@](C)(C4CC4)C3=O)ccc2Br)C1
- IC50 [1]: 316 nM
- IC50 [2]: 63.1 nM
- Papp [3]: 9.9 ×10⁻⁶ cm/s
- Kd [4]: 10 nM
- Kd [5]: 15.8 nM
- Kd [6]: 126 nM
- Kd [7]: 25.1 nM
